# Results reported in ChEMBL document CHEMBL4680251, “Discovery of a 2-pyridinyl urea-containing compound YD57 as a potent inhibitor of apoptosis signal-regulating kinase 1 (ASK1)” (Eur J Med Chem, 2020).
# What was measured:
# HepG2 [1] = experiment: Induction of cell cycle arrest in human HepG2 cells assessed as accumulation at S phase at 2 uM incubated for 24 hrs by propidium iodide staining based flow cytometry (reference value: 33.27%); format: functional
# HepG2 [2] = experiment: Induction of cell cycle arrest in human HepG2 cells assessed as accumulation at S phase at 16 uM incubated for 24 hrs by propidium iodide staining based flow cytometry (reference value: 33.27%); format: functional
# HepG2 [3] = experiment: Induction of cell cycle arrest in human HepG2 cells assessed as accumulation at S phase at 0.5 uM incubated for 24 hrs by propidium iodide staining based flow cytometry (reference value: 33.27%); format: functional
# HepG2 [4] = experiment: Induction of cell cycle arrest in human HepG2 cells assessed as accumulation at S phase at 1 uM incubated for 24 hrs by propidium iodide staining based flow cytometry (reference value: 33.27%); format: functional
# CDK3/Cyclin E = CDK3/Cyclin E (Homo sapiens, UniProt Q00526); experiment: Inhibition of full length human recombinant CDK3/Cyclin E using histone H1 as substrate incubated for 40 mins in presence of [gamma-33ATP] by radiometric scintillation counting analysis; format: protein-complex assay
# Sequence of CDK3/Cyclin E (P24864 whole entry): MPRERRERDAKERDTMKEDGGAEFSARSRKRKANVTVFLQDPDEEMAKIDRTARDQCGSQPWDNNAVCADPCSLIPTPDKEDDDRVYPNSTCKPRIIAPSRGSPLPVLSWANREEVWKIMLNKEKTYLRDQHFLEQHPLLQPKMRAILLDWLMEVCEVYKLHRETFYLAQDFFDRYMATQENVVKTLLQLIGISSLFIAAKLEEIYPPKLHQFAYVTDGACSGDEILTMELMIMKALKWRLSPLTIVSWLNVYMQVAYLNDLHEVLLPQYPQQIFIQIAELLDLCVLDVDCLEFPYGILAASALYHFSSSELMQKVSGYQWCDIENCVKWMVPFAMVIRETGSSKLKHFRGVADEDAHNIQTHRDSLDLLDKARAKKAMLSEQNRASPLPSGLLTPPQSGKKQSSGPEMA
# Sequence of CDK3/Cyclin E (Q00526 whole entry): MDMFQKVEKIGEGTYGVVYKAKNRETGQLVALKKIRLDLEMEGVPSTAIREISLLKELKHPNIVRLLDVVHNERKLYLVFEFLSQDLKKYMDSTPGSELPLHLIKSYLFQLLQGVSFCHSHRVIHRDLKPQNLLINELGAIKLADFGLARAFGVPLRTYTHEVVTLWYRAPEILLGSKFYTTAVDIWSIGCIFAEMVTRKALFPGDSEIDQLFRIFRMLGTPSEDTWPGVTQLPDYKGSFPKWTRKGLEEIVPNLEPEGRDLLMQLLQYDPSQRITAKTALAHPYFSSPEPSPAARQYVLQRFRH
# HepG2 [5] = experiment: Induction of cell cycle arrest in human HepG2 cells assessed as accumulation at G2/M phase at 8 uM incubated for 24 hrs by propidium iodide staining based flow cytometry (reference value: 33.49%); format: functional
# [6] = Inhibition of human full length recombinant CDK9/cyclin T1 using KTFCGTPEYLAPE as substrate incubated for 40 mins in presence of [gamma-33ATP] by radiometric scintillation counting analysis
# HepG2 [7] = experiment: Induction of cell cycle arrest in human HepG2 cells assessed as accumulation at S phase at 8 uM incubated for 24 hrs by propidium iodide staining based flow cytometry (reference value: 33.27%); format: functional
# HepG2 [8] = experiment: Induction of cell cycle arrest in human HepG2 cells assessed as accumulation at G2/M phase at 16 uM incubated for 24 hrs by propidium iodide staining based flow cytometry (reference value: 33.49%); format: functional
# HepG2 [9] = experiment: Induction of cell cycle arrest in human HepG2 cells assessed as accumulation at G0/G1 phase at 4 uM incubated for 24 hrs by propidium iodide staining based flow cytometry (reference value: 38.34%); format: functional
# HepG2 [10] = experiment: Induction of cell cycle arrest in human HepG2 cells assessed as accumulation at G2/M phase at 4 uM incubated for 24 hrs by propidium iodide staining based flow cytometry (reference value: 33.49%); format: functional
# [11] = biological target: T1, Mitogen-activated protein kinase kinase kinase 5 (Homo sapiens, UniProt Q99683); experiment: Inhibition of ASK1 (unknown origin)
# T1 sequence (Q99683 whole entry): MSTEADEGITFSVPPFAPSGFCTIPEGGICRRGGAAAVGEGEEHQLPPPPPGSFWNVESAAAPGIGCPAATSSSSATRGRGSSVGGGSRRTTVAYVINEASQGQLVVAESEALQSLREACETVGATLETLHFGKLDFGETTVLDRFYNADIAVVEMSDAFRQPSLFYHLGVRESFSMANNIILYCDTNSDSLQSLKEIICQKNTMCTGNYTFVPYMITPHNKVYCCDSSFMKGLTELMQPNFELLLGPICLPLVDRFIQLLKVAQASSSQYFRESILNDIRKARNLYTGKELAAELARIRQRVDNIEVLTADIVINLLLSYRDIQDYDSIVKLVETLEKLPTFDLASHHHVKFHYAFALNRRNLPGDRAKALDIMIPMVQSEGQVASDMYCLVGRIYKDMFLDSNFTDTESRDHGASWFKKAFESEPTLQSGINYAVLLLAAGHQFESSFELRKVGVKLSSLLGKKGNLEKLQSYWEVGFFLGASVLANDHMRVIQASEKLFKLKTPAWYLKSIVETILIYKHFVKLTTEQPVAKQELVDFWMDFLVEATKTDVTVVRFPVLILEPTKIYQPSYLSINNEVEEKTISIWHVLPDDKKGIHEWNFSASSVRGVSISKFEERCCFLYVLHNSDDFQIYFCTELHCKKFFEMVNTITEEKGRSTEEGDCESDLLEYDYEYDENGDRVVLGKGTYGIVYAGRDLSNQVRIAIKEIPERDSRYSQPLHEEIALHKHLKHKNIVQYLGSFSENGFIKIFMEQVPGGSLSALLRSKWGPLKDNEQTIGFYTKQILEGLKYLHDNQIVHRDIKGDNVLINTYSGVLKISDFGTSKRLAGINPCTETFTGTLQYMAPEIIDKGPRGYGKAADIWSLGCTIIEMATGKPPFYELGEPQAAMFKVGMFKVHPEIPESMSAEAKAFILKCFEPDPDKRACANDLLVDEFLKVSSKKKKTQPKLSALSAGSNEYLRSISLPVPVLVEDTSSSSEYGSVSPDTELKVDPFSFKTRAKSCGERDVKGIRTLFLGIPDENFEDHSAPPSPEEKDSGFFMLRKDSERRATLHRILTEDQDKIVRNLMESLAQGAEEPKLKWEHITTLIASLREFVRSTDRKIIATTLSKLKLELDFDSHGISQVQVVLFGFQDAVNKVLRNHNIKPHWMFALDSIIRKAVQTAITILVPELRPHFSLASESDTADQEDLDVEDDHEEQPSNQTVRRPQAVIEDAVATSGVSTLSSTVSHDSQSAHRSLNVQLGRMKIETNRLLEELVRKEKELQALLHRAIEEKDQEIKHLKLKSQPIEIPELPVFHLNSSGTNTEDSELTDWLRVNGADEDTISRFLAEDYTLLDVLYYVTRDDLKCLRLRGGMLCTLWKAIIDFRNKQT
# HepG2 [12] = experiment: Induction of cell cycle arrest in human HepG2 cells assessed as accumulation at G2/M phase at 1 uM incubated for 24 hrs by propidium iodide staining based flow cytometry (reference value: 33.49%); format: functional
# HepG2 [13] = experiment: Induction of cell cycle arrest in human HepG2 cells assessed as accumulation at G0/G1 phase at 8 uM incubated for 24 hrs by propidium iodide staining based flow cytometry (reference value: 38.34%); format: functional
# HepG2 [14] = experiment: Induction of cell cycle arrest in human HepG2 cells assessed as accumulation at G2/M phase at 2 uM incubated for 24 hrs by propidium iodide staining based flow cytometry (reference value: 33.49%); format: functional
# HepG2 [15] = experiment: Induction of cell cycle arrest in human HepG2 cells assessed as accumulation at S phase at 4 uM incubated for 24 hrs by propidium iodide staining based flow cytometry (reference value: 33.27%); format: functional
smiles,measurement,setting,value
C[C@H](CO)n1cnnc1-c1cccc(NC(=O)Nc2cc3ccccn3n2)n1,Activity,HepG2 [1],7.15%
same,Activity,HepG2 [2],9.63%
same,Activity,HepG2 [3],31.94%
same,Activity,HepG2 [4],11.7%
same,IC50,CDK3/Cyclin E,117 nM
same,Activity,HepG2 [5],35.02%
same,IC50,[6],94.2 nM
same,Activity,HepG2 [7],8.95%
same,Activity,HepG2 [8],32.64%
same,Activity,HepG2 [9],66.33%
same,Activity,HepG2 [10],34.25%
same,IC50,[11],33.8 nM
same,Activity,HepG2 [12],30.59%
same,Activity,HepG2 [13],66.65%
same,Activity,HepG2 [14],34.32%
same,Activity,HepG2 [15],7.9%
